Converted amounts (≈) assume the structure as drawn. “And” between values parts separate entries of the source, which are not always exact repeats. Equal values may be shown once.
Key:
[1] = Phytotoxicity in Sonchus arvensis assessed as diameter of lesions at 2 mg/ml incubated for 120 hrs by leaf puncture assay; assay type: toxicity
Bacillus subtilis = experiment: Antibacterial activity against Bacillus subtilis NCTC […] assessed as zone of inhibition at 100 ug per disc incubated for 24 hrs by agar diffusion assay; assay type: functional; settings: read-out: DIZ
[2] = Cytotoxicity against Spodoptera frugiperda Sf9 cells incubated for 24 hrs by trypan blue staining based assay; assay type: toxicity, cell-based; settings: read-out: LC50
[3] = Toxicity in Galleria mellonella larvae upto 420 mg/kg treated for 14 days in dark; assay type: organism-based; settings: in vivo, 336 h, time 14 day
Aphididae = experiment: Aphicidal activity against insects at 1 mg/ml measured after 24 hrs; assay type: functional
Paramecium caudatum = experiment: Toxicity in Paramecium caudatum; assay type: organism-based; settings: in vivo
[4] = Toxicity in Galleria mellonella larvae treated for 14 days in dark; settings: 336 h, time 14 day
Schizaphis graminum = experiment: Aphicidal activity against Schizaphis graminum at 1 mg/ml measured after 24 hrs; assay type: functional
MCF7 = experiment: Cytotoxicity against human MCF7 cells measured after 24 hrs by MTT assay; assay type: functional, cell-based; settings: MCF7, 24 h
[5] = Cytotoxicity against mouse LP07 cells measured after 24 hrs by MTT assay; assay type: functional, cell-based; settings: LP07, 24 h
[6] = Cytotoxicity against mouse LM3 cells measured after 24 hrs by MTT assay; assay type: functional, cell-based; settings: LM3, 24 h

Compound	Activity [1] [mm]	zone of inhibition at 100 µg/disc (Bacillus subtilis) [mm]	CC50 at 24 h [2]	Activity [3]	mortality at 1000 µg/mL (Aphididae) [%]	Activity (Paramecium caudatum)	LC50 [4] [mg/kg]	mortality at 1000 µg/mL (Schizaphis graminum) [%]	IC50 (MCF7) [µg/mL]	IC50 [5] [µg/mL]	IC50 [6] [µg/mL]
C[C@@H]1CCC(=O)CCCCC(=O)O1	0	0	> 100 µg/mL and > 540 µM	Non-Toxic	–	–	–	–	–	–	–
C[C@@H]1CC[C@@H](O)[C@H](O)CCCC(=O)O1	0	0	–	Non-Toxic	33	–	–	–	–	–	–
C[C@H]1OC(=O)CCC(=O)C[C@H](O)[C@H]2O[C@H]21	1.1	0	–	Non-Toxic	13	–	–	–	–	–	–
CC(=O)O[C@@H]1CC[C@@H](C)OC(=O)/C=C\[C@@H]2O[C@H]21	5.2	0	> 100 µg/mL and > 420 µM	Non-Toxic	23	–	–	–	–	–	–
C[C@@H]1CC[C@@H](O)CCCCC(=O)O1	0	0	> 100 µg/mL and > 540 µM	Non-Toxic	0	–	–	–	–	–	–
C[C@@H]1CC[C@@H](O)[C@@H]2O[C@H]2/C=C\C(=O)O1	5.5	0	> 100 µg/mL and > 500 µM	Non-Toxic	8	–	–	–	–	–	–
C[C@H]1OC(=O)CC[C@H](O)/C=C/[C@H]2O[C@@H]12	0	0	–	Non-Toxic	0	–	–	–	–	–	–
C[C@@H]1C[C@H](O)/C=C/C(=O)/C=C\C(=O)O1	4.3	45	< 1 µg/mL and < 5 µM	Non-Toxic	10	Non-Toxic	–	–	–	–	–
CC(=O)O[C@H]1/C=C/C=C\C(=O)O[C@H](C)CC1	0	0	–	–	55	–	160	–	–	–	–
CCC[C@H]1OC(=O)CCC/C=C/[C@H](O)[C@@H]1O [HERBARUMIN I]	4.8	0	–	Non-Toxic	–	–	–	54	–	–	–
C[C@@H]1C[C@H](O)/C=C/[C@@H](O)/C=C\C(=O)O1 [MODIOLIDE A]	–	–	–	–	–	–	–	–	61 (≈ 308 µM)	> 125	292 (≈ 1470 µM)
C[C@@H]1CC[C@@H](O)/C=C/C=C\C(=O)O1 [STAGONOLIDE E]	1.7	0	–	Non-Toxic	67	–	–	–	–	–	–
CCC[C@H]1OC(=O)CCC/C=C/C(=O)[C@@H]1O [STAGONOLIDE]	6.4	38	3 µg/mL and 13 µM	–	–	–	300	15	–	–	–
